Where a name gives a salt, the structure may show the parent alone.
Columns and labels:
[1] = biological target: T1, Muscarinic acetylcholine receptor M5 (Homo sapiens, UniProt P08912); experiment: (§1) PDSP Secondary Binding target: CHRM5 - Compounds are tested at 10 uM concentration, plate are incubated at room temperature in the dark for 90 minutes. Reaction are stopped by vacuum filtration onto 0.3% polyethyleneimine soaked filter mats using Filtermate harvester. Scintillation cocktail is then melted onto microwave-dried filters on a hot plate and the radio activity is counted in Microbia counter.
T1 sequence (P08912 whole entry): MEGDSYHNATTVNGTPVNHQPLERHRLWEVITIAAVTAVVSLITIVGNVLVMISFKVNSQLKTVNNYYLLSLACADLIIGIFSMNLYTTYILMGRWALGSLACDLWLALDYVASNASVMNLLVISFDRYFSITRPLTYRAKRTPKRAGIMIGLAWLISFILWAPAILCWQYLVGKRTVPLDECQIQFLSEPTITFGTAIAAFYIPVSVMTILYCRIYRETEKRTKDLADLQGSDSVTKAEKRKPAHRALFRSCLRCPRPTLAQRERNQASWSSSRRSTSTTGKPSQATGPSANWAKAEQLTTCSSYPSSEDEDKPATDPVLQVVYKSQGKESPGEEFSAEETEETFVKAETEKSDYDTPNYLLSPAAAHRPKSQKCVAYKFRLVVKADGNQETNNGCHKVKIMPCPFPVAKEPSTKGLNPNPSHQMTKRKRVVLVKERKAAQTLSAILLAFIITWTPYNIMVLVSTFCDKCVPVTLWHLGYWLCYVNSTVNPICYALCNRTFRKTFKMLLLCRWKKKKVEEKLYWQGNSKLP

Translocator protein = Translocator protein (Homo sapiens, UniProt P30536); experiment: as §1, with “TSPO” for “CHRM5”
Sequence of Translocator protein (P30536 whole entry): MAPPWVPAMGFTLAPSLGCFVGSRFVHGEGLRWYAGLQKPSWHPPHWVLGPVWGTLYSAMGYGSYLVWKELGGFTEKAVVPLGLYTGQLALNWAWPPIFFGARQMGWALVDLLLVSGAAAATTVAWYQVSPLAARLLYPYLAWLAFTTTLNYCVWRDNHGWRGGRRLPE

[2] = biological target: T2, 5-hydroxytryptamine receptor 1A (Homo sapiens, UniProt P08908); experiment: as §1, with “HTR1A” for “CHRM5”
T2 sequence (P08908 whole entry): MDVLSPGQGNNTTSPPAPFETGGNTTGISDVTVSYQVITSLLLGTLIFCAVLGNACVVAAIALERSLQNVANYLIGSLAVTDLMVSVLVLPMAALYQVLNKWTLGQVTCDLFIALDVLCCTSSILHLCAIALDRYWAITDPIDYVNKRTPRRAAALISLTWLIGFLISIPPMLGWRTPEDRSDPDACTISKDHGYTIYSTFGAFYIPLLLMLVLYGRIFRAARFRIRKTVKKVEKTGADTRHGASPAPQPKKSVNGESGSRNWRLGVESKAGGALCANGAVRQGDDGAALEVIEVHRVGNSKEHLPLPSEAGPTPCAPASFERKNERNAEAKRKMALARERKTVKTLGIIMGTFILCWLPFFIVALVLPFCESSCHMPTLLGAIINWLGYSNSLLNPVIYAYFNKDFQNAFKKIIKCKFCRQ

[3] = biological target: 5-hydroxytryptamine receptor 1D (Homo sapiens, UniProt P28221); experiment: as §1, with “HTR1D” for “CHRM5”
Sequence of 5-hydroxytryptamine receptor 1D (P28221 whole entry): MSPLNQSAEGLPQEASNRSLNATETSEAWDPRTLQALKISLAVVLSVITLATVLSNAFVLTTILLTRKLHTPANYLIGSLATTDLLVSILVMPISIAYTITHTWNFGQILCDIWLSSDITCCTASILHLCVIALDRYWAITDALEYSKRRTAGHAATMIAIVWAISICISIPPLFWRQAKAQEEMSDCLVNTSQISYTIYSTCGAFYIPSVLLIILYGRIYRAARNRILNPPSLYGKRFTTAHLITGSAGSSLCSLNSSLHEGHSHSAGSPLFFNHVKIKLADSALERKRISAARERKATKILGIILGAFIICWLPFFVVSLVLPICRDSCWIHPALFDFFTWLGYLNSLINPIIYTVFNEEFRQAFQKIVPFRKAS

[4] = biological target: 5-hydroxytryptamine receptor 5A (Homo sapiens, UniProt P47898); experiment: as §1, with “HTR5A” for “CHRM5”
Sequence of 5-hydroxytryptamine receptor 5A (P47898 whole entry): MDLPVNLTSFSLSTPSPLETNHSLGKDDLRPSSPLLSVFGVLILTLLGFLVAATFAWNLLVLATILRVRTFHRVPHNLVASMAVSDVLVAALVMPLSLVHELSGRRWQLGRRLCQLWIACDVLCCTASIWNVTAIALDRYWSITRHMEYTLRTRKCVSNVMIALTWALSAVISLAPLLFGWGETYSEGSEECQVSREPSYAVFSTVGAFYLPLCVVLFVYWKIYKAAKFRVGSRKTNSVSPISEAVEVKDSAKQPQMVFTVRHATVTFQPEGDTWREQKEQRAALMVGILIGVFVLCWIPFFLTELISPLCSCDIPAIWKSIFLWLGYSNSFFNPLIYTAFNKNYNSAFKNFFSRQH

[5] = biological target: Sigma intracellular receptor 2 (Homo sapiens, UniProt Q5BJF2); experiment: as §1, with “TMEM97” for “CHRM5”
Sequence of Sigma intracellular receptor 2 (Q5BJF2 whole entry): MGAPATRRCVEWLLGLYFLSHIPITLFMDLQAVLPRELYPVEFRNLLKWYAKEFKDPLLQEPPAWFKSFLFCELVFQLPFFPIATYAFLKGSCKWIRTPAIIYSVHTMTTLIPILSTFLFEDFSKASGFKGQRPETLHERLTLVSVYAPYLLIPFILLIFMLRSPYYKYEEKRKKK

D(1B) dopamine receptor = D(1B) dopamine receptor (Homo sapiens, UniProt P21918); experiment: as §1, with “DRD5” for “CHRM5”
Sequence of D(1B) dopamine receptor (P21918 whole entry): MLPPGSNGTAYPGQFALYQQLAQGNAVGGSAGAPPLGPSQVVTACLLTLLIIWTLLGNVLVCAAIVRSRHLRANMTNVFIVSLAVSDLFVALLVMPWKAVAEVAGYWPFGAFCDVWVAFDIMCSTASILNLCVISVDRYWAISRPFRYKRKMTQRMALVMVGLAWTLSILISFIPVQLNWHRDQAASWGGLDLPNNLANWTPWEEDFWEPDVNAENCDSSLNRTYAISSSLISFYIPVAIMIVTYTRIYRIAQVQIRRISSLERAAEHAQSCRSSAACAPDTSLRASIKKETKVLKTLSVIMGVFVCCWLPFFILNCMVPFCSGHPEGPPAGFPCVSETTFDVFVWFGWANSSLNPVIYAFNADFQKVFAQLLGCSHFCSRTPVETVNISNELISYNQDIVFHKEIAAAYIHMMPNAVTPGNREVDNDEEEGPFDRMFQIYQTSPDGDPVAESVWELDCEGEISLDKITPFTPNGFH

[6] = biological target: Sodium-dependent noradrenaline transporter (Homo sapiens, UniProt P23975); experiment: as §1, with “SLC6A2” for “CHRM5”
Sequence of Sodium-dependent noradrenaline transporter (P23975 whole entry): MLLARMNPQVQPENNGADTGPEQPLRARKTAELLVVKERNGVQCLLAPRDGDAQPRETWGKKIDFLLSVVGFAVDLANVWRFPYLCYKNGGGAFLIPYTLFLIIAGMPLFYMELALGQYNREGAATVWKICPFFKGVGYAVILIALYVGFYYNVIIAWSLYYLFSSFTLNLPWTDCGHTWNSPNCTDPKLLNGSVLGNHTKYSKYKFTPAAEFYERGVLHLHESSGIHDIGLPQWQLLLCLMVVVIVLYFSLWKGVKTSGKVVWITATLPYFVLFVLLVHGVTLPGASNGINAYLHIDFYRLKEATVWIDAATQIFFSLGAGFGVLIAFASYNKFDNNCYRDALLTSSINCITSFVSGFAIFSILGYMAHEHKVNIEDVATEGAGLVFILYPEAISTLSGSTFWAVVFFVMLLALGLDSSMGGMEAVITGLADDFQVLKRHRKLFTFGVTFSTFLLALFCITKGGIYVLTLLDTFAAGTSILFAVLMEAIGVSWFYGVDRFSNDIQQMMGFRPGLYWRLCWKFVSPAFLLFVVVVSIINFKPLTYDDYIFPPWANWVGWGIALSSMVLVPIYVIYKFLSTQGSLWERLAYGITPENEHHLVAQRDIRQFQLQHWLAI

[7] = biological target: Sodium-dependent dopamine transporter (Homo sapiens, UniProt Q01959); experiment: as §1, with “SLC6A3” for “CHRM5”
Sequence of Sodium-dependent dopamine transporter (Q01959 whole entry): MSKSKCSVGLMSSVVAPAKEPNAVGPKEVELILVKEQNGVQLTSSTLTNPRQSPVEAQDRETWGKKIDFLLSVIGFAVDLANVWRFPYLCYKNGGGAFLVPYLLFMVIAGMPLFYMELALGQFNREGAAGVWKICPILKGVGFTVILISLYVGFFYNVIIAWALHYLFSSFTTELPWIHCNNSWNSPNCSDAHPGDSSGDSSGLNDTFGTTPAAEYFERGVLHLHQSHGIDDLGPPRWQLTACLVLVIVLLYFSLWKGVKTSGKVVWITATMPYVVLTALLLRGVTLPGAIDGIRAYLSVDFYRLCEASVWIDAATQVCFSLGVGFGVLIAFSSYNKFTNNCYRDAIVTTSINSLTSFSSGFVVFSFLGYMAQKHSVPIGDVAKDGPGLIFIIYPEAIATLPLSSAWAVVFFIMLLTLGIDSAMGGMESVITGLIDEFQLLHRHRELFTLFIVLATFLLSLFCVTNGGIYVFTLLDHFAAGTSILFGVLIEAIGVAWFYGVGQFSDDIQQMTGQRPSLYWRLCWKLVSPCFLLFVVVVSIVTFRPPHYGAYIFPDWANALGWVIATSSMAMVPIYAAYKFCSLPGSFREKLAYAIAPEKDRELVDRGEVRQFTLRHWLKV

[8] = biological target: 5-hydroxytryptamine receptor 7 (Homo sapiens, UniProt P34969); experiment: as §1, with “HTR7” for “CHRM5”
Sequence of 5-hydroxytryptamine receptor 7 (P34969 whole entry): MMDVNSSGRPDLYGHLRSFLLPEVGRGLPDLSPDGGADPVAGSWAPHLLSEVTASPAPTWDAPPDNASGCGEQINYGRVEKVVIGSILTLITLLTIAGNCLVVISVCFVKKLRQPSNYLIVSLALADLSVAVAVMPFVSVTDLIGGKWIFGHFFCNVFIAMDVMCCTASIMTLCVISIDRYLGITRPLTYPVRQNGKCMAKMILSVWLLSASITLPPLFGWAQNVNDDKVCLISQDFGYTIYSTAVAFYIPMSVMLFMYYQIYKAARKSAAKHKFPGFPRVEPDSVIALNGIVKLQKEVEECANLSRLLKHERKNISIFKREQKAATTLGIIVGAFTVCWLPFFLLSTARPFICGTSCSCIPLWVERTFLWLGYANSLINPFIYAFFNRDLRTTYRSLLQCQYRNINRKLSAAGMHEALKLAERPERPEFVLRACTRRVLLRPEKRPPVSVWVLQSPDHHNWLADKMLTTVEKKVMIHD

[9] = biological target: 5-hydroxytryptamine receptor 1B (Homo sapiens, UniProt P28222); experiment: as §1, with “HTR1B” for “CHRM5”
Sequence of 5-hydroxytryptamine receptor 1B (P28222 whole entry): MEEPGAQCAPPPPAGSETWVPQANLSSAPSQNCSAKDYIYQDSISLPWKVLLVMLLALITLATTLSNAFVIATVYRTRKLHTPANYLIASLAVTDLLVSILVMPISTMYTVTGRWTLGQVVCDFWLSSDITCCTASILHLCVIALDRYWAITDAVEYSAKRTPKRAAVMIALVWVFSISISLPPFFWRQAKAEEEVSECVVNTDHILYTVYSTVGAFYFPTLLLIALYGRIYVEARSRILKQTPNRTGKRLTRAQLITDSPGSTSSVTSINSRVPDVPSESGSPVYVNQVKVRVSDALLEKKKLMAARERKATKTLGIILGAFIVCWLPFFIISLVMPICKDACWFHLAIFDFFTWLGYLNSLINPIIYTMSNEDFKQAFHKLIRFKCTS

[10] = biological target: T3, Alpha-1D adrenergic receptor (Homo sapiens, UniProt P25100); experiment: as §1, with “ADRA1D” for “CHRM5”
T3 sequence (P25100 whole entry): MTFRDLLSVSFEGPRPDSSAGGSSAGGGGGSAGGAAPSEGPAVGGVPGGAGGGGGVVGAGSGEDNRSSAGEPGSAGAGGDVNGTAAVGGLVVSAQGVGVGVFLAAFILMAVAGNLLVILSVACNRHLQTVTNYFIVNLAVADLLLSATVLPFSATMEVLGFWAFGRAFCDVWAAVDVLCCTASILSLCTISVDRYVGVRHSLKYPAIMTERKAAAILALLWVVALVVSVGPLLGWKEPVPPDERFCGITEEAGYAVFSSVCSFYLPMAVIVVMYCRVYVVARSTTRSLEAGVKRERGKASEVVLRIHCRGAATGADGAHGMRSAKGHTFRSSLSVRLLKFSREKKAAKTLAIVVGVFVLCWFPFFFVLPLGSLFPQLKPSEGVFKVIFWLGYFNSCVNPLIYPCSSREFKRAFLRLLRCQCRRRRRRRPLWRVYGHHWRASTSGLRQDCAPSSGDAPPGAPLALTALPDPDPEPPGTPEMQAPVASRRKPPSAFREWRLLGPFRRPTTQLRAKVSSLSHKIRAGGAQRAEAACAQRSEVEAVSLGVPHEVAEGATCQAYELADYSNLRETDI

[11] = biological target: Beta-3 adrenergic receptor (Homo sapiens, UniProt P13945); experiment: as §1, with “ADRB3” for “CHRM5”
Sequence of Beta-3 adrenergic receptor (P13945 whole entry): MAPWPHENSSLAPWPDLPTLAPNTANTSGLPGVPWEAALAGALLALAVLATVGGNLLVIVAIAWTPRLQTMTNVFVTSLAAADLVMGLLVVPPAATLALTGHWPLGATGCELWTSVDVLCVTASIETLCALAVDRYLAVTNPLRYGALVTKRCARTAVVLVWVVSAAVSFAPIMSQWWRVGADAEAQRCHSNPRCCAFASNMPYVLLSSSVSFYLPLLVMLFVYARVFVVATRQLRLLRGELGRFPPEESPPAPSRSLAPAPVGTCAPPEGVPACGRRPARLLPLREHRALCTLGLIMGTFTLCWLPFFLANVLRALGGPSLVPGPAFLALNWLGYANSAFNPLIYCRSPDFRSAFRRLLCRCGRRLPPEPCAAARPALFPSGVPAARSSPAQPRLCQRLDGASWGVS

[12] = biological target: Sodium-dependent serotonin transporter (Homo sapiens, UniProt P31645); experiment: as §1, with “SLC6A4” for “CHRM5”
Sequence of Sodium-dependent serotonin transporter (P31645 whole entry): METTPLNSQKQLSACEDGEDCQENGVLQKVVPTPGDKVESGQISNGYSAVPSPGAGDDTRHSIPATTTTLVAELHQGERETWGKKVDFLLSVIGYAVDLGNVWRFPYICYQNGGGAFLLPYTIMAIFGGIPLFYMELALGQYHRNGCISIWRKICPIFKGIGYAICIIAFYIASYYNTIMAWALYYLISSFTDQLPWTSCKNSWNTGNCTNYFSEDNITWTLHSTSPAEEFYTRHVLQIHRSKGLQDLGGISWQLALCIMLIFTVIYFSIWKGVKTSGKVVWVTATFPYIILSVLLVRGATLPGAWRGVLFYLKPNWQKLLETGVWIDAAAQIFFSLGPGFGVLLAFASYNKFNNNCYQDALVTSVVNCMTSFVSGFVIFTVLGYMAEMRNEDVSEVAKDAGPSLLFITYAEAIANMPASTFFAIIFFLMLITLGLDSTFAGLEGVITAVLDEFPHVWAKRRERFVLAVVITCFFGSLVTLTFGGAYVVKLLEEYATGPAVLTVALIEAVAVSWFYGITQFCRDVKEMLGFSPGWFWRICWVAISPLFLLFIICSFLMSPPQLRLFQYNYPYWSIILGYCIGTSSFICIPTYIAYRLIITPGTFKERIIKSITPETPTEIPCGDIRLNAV

[13] = biological target: T4, Alpha-1B adrenergic receptor (Homo sapiens, UniProt P35368); experiment: as §1, with “ADRA1B” for “CHRM5”
T4 sequence (P35368 whole entry): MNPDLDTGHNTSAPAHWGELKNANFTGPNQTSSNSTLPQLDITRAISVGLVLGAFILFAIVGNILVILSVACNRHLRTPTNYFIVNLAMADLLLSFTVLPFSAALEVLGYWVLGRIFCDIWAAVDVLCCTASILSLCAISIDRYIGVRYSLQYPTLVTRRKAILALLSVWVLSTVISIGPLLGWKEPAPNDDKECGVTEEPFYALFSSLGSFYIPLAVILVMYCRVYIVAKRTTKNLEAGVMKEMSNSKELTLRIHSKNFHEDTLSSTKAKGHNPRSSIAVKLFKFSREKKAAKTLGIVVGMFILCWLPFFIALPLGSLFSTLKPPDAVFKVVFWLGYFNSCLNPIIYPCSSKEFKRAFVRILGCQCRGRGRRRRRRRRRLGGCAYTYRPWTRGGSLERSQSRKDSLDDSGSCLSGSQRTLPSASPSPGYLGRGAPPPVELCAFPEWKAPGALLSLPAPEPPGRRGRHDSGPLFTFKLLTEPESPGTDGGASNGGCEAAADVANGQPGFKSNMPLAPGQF

[14] = biological target: T5, Alpha-2B adrenergic receptor (Homo sapiens, UniProt P18089); experiment: as §1, with “ADRA2B” for “CHRM5”
T5 sequence (P18089 whole entry): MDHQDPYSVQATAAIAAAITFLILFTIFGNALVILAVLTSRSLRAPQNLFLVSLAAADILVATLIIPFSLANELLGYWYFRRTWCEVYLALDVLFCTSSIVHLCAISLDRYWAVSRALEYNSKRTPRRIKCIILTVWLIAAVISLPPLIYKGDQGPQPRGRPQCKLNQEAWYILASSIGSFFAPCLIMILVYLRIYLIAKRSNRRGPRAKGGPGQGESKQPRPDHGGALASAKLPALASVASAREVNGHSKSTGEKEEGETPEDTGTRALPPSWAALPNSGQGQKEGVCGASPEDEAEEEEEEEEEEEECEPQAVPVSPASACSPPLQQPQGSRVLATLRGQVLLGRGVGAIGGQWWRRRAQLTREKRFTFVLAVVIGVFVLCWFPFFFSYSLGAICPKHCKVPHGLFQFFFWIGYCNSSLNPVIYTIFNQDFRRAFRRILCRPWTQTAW

[15] = biological target: T6, Alpha-1A adrenergic receptor (Homo sapiens, UniProt P35348); experiment: as §1, with “ADRA1A” for “CHRM5”
T6 sequence (P35348 whole entry): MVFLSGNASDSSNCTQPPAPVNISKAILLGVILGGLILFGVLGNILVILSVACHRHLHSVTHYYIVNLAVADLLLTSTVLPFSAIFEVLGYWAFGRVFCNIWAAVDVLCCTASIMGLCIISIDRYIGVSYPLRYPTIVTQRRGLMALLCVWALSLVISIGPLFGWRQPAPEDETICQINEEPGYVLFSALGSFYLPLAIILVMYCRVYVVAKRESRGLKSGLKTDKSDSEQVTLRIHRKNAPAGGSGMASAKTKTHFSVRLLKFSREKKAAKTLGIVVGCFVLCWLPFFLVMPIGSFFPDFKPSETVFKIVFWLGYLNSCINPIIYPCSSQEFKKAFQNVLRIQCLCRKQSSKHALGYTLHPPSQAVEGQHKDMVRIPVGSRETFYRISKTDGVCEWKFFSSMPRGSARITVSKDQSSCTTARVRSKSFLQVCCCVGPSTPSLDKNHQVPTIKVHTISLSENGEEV

[16] = biological target: T7, Alpha-2C adrenergic receptor (Homo sapiens, UniProt P18825); experiment: as §1, with “ADRA2C” for “CHRM5”
T7 sequence (P18825 whole entry): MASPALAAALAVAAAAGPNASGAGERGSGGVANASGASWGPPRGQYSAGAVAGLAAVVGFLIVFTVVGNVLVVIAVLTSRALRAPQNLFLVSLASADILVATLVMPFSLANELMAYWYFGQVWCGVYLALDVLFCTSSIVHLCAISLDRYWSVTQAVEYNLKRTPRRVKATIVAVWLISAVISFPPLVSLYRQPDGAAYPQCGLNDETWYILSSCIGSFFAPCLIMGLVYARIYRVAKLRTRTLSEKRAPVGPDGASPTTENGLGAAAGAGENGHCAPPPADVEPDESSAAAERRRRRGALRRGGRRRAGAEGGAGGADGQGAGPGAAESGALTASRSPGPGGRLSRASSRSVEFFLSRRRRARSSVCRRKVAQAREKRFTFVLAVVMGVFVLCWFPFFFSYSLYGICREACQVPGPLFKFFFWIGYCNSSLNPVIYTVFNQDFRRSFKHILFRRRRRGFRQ

COc1ccnc(N2CCC3(CCCN(Cc4c[nH]c5ccccc45)C3=O)CC2)n1
Ki [1]: > 10000 nM
Ki (Translocator protein): 803 nM
Ki [2]: 3260 nM

O=C(O)c1cc(-c2ccc(C3CCNCC3)cc2)c2ccc(-c3ccc(C(F)(F)F)cc3)cc2c1
Ki [3]: 1190 nM
Ki [1]: 2190 nM
Ki [4]: 2400 nM
Ki [5]: 1060 nM
Ki (D(1B) dopamine receptor): 1050 nM
Ki [6]: 1850 nM
Ki [7]: 1220 nM
Ki [8]: 3300 nM
Ki [9]: 1160 nM
Ki [2]: 2540 nM

Cc1c(OCc2cccc(-c3ccc(C(=O)O)cc3)c2)cc2c(c1C)C(=O)C(C1CCCC1)C2 (stereo not drawn)
Ki [10]: > 10000 nM
Ki [11]: 5050 nM
Ki [12]: > 10000 nM
Ki [13]: > 10000 nM

Cc1cccc([C@H](C)c2cnc[nH]2)c1C [DEXMEDETOMIDINE HYDROCHLORIDE]
Ki [14]: 12.1 nM
Ki [6]: 3260 nM
Ki [15]: 749 nM
Ki [8]: 923 nM
Ki [13]: 2980 nM
Ki [16]: 39.4 nM

From ChEMBL document CHEMBL5442175, “EUbOPEN Chemogenomics Library - PDSP Secondary Binding” (2024)
